According to patent US20190343801A1, “COMPOSITIONS AND METHODS FOR CONTROLLING NATURAL KILLER CELL ACTIVATION AND FUNCTION” (BAR ILAN UNIVERSITY, priority 2017, published 2019):
Each block holds one molecule with its values, some of them ahead of it. Where no end group is shown, it is not given here.

How the values were obtained:
[1] = tested on: myosin superfamily members from classes I, V, and X; conditions: cited from earlier work
smooth muscle = conditions: cited from earlier work
[2] = tested on: F-actin retrograde flow in YTS and pNK F-tractin GFP cells; test: Live cell imaging and kymograph analysis of F-actin retrograde flow (ARF) in F-tractin GFP NK cells; assay type: cell-based; conditions: 0.5 μM CytD, anti-CD28 or anti-KIR2DL1
Description: FIGS. […] In FIG. 5A, YTS F-tractin GFP cells were dropped over coverslips coated with anti-CD28 or anti-KIR1 antibodies, and imaged at 1 frame/sec through a single focal plane. […] Representative images are shown. Kymographs of F-actin dynamics were compiled along the contact site radius. […]
The y axis represents F-actin velocity (μm/sec), and the x axis—time from initial spreading (sec).
FIGS. 5E-5H. show analyses of NKIS area and ARF in the activating vs. inhibitory NKIS in the presence of Y-27632 (Y-27) inhibitor of myosin light chain (MLC) phosphorylation and/or JAS. […] NKIS area was determined using ImageJ. […]
Analyses of actin and SHP-1 dynamics were performed by preparing kymographs from live cell videos and tracing the movement of the fluorescently tagged proteins. […] Velocity over distance from the center was determined by calculating the velocity of the tracked protein based on the distance traversed to time between each two points on the trace, and noting the relative location from the center of the measured area. […] For each bin, average velocity and standard error were calculated. Average distance traversed over time was calculated by measuring the location of the trace, relative to its point of origin at each time point after the beginning of the trace. For each relative time point from the beginning of a trace, an average distance and standard error were calculated. […]

SHP-1: β-actin complex = test: SHP-1 immunoprecipitation and anti-β-actin immunoblotting in YTS-2DL1 cells incubated with target cells; assay type: cell-based; conditions: inhibitory 221-Cw4 cells; 0.5 μM CytD
Experimental: YTS-2DL1 cells were incubated at 37° C. with 221-Cw4 or Cw7 cells for 5 min, 1 μM of JAS was added, and cells were incubated for 5 min. Cell lysates were subjected to IP of SHP-1 and IB with anti-β-actin or anti-SHP-1 antibodies. Shown data represent at least three independent experiments.
In FIG. 8D, YTS-2DL1 cells were incubated at 37° C. with 221-Cw4 or Cw7 cells for 5 min, 0.5 μM of CytD was added, and the cells were incubated for an additional 5 min. The cells were lysed, and IPs of SHP-1 were subjected to IB using anti-β-actin or anti-SHP-1. Results shown are representative of three independent experiments.
NK cells (primary or YTS) and ‘221’ target cells (either expressing HLA-Cw4, Cw7 or no HLA) were first incubated separately on ice for 10 min, at a ratio of 1:1. The cells were then mixed, centrifuged and kept on ice for 15 min. The cell mixture was then transferred to 37° C., for the indicated period of time, and subsequently lysed with ice-cold lysis buffer.
For analysis of whole cell lysates, 1-10×10^5 cells were used, and for IP experiments, 10-15×10^6 cells were used. Protein A/G plus-Agarose beads (Santa Cruz Biotechnology) were used for IP. […] Immunoreactive proteins were detected with either anti-mouse or anti-rabbit horseradish peroxidase-coupled secondary antibody followed by detection by enhanced chemiluminescence (PerkinElmer).

SHP-1 [3] = test: PTP assay: SHP-1 catalytic activity (pNPP hydrolysis) after treatment of NK-target cell conjugates; assay type: cell-based; conditions: YTS-2DL1 + 221-Cw4, untreated 100%; 0.5 μM CytD
Experimental: YTS-2DL1 cells were pretreated with 25 μM Y-27 or left untreated. Cells were incubated at 37° C. with target cells for 5 min, 1 μM of JAS was added, and samples were incubated for 5 minutes before lysis. IP of SHP-1 was performed, and precipitates were incubated with pNpp. SHP-1 activity was determined by measuring absorbance at 405 nm. The graph represents rates of SHP-1 catalytic activity from three independent experiments.
In FIG. 8E, YTS-2DL1 cells were incubated at 37° C. with 221-Cw4 or Cw7 cells for 5 min, treated with 0.5 μM of CytD or left untreated, and SHP-1 activity was determined as detailed in the Materials and Methods. Graph summarizing percent of relative SHP-1 catalytic activity obtained by four independent experiments. Data are means±SEM.
SHP-1 catalytic activity was determined by measuring the hydrolysis of the exogenous substrate p-Nitrophenyl Phosphate (pNPP) by SHP-1, as previously described. NK cells (2-5×10^6) were incubated with target cells at ratio of 1:1, activated as described above, and lysed with passive ice-cold lysis buffer (1% Brij, 1% n-Octyl-b-D-glucoside, 50 mM Tris-HCl, pH 7.4, 150 mM NaCl, 5 mM ethylenediaminetetraacetic acid, and complete protease inhibitor tablets). Cell lysates were subjected to IP with anti-SHP-1 antibody. […] Reactions were terminated by adding 800 μl 1M NaOH, and SHP-1 activity was determined by measuring absorbance at 405 nm.

SHP-1 [4] = target: T1, SHP-1 (Homo sapiens, UniProt P29350); test: MST analysis for the binding of YFP-SHP-1 and actin-derived peptides; conditions: for binding to SHP-1: lysates of HEK 293T cells expressing YFP-SHP-1, peptides 400 μM-48 nM
T1 construct: expressed in transfected cells; host or cells: HEK 293T cells, unpurified lysate
T1 sequence (P29350 whole entry): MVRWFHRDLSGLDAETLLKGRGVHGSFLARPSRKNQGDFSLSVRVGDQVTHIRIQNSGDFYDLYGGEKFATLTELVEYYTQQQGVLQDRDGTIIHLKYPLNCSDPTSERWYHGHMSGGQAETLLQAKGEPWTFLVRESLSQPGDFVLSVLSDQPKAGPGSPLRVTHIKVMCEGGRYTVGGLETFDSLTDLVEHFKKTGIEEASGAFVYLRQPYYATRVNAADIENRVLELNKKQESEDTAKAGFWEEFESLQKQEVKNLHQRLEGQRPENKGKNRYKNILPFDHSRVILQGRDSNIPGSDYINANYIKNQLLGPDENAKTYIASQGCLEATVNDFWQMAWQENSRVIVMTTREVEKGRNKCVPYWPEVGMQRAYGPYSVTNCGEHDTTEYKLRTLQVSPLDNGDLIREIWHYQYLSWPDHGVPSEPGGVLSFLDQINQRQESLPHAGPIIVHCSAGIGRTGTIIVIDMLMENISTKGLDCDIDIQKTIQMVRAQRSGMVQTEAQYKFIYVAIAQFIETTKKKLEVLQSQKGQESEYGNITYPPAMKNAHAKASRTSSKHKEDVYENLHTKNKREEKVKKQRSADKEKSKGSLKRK
Description: Binding curves were generated by the NanoTemper analysis software (MO.Affinity Analysis v2.1.3). The graph summarizes the changes of the fluorescent thermophoresis signals as a function of peptide concentration from at least three independent experiments. Data are means±SD.
YFP-tagged SHP-1 was obtained from cell lysates of Human Embryonic Kidney (HEK) 293T cells, transiently transfected with YFP-SHP-1 by DNA-calcium phosphate co-precipitation, as previously described (Reicher B, et al (2012) Molecular and cellular biology 15: 3153-3163). MST measurements were performed using the protein purification-free method described by Khavrutskii et al. (Khavrutskii L, et al (2013) Journal of visualized experiments: JoVE). Briefly, each peptide (Synpeptide) was initially dissolved in Dimethylformamide (DMF), diluted in DDW (supplemented with 1 mM DTT) to reach stock concentration of 80004, and serially diluted (range from 400 μM to 48.8 nM) in HEPES buffer (50 mM, supplemented with 0.05% Tween-20 and 1 mM DTT) in 200 μL PCR-tubes. Then, YFP-SHP-1-containing cell lysate was added to the serially diluted tubes at a 1:1 ratio and the samples were gently mixed. The samples were allowed to incubate at room temperature for 30 min before being loaded into standard-treated Monolith™ capillaries (NanoTemper). After loading into the instrument (Monolith NT.115, NanoTemper), microthermophoresis was carried out using 40% LED power and 40% MST power. The changes of the fluorescent thermophoresis signals were plotted against the concentration of the serially diluted peptides. KD values were determined using the NanoTemper analysis software (MO.Affinity Analysis v2.1.3).
The SHP-1-β-actin complex formation was also examined using microscale thermophoresis (MST) technology. […] Lysates of HEK 293T cells transiently expressing YFP-SHP-1 were incubated with decreasing concentrations of the different peptides followed by MST analysis.

CFP-actin [5] = target: CFP-actin (UniProt P60709); test: FRET between YFP-SHP-1 and CFP-actin in YTS cells at the activating NKIS (221-Cw7 target cells)
CFP-actin [6] = target: CFP-actin (UniProt P60709); test: FRET between YFP-SHP-1 and CFP-actin in YTS cells at the inhibitory NKIS (221-Cw4 target cells)
[7] = target: YFP-SHP-1 (human SHP-1 wt tagged with YFP) (human) (UniProt P29350); test: MST, peptide titrated into lysate of HEK 293T cells expressing YFP-SHP-1
[8] = target: YFP-SHP-1 (human SHP-1 wt tagged with YFP) (human) (UniProt P29350); test: MST, lysate of 293T cells expressing YFP-SHP-1 with serially diluted peptide

Molecule: Cc1ccc2c(c1)C(=O)C1(O)CCN(c3ccccc3)C1=N2 (stereo not drawn) [Blebbistatin]
inhibition [1]: does not inhibit | IC50 (smooth muscle): 80 µM

Molecule: C=C1[C@@H](C)[C@H]2C(Cc3ccccc3)NC(=O)[C@]23[C@H](OC(C)=O)/C=C/[C@@](C)(O)C(=O)[C@@H](C)C/C=C/[C@H]3[C@@H]1O (stereo partly drawn) [CytD, Cytochalasin D]
ARF velocity at the LP [2]: significant reduction in ARF velocity | SHP-1 binding to β-actin (SHP-1: β-actin complex): increased binding of SHP-1 to β-actin | relative SHP-1 catalytic activity (SHP-1 [3]): 55.4±8.4%

Molecule: EYQKASGVSG (irrelevant control peptide)
binding to SHP-1 (SHP-1 [4]): no binding was detected

Molecule: KEKLCFVALDF (mutant actin peptide) [Y-F mutant, single aa mutant form of the β-actin peptide, tyrosine to phenylalanine substitution]
binding to SHP-1 (SHP-1 [4]): no binding was detected

Molecule: KEKLCYVALDF [WT actin peptide, KEKLCYVALDF]
Kd (SHP-1 [4]): 39.5 ± 6.2 µM

FRET efficiency (CFP-actin [5]): 8.5% | FRET efficiency (CFP-actin [6]): 18.9%
Molecule: YFP-SHP-1 (human SHP-1 wt tagged with YFP) (from UniProt P29350 1-595) (enzyme)

Kd [7]: 39.5 µM | EC50 (read off the curve) [8]: 40 µM
Molecule: KEKLCYVALDF [WT β-actin derived peptide containing an ITIM motif (…)]
